Source: the supplement of paper PMC11208160

Test: recombinant barcode read abundance after kanamycin selection (control-corrected) (log10(CPM+1)); higher = more efficient recombination; sequences stand for … in AGTGCAGAGAAAATCGGCCAGTTTTCTCTGCCTGCAGTCCGCATGCCGT…AGATTTATGCAGCGGACTGCCTTTCTCCCAAAGTGATAAACCGGACAGTATCATGGACCGGTTTTCCCGGTAATCCGTATTTGCAAGGTTGGTTTCACT; site = the 11-nt target
Outline: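 For this pooled screen, each oligo contained a promoter, a target, a barcode and the J23119-driven first 104 bases of the bridge RNA. Gibson cloning placed it into a vector supplying the remaining 73 bp and a T7-inducible recombinase, and the pool was co-electroporated into E. coli with a donor plasmid. Recombination efficiency is derived from barcode counts per million at recombinant junctions after averaging and control correction, and is expressed on a log scale as log10(CPM+1), with selection on chloramphenicol/ampicillin/kanamycin plus 0.1 mM IPTG against a chloramphenicol/ampicillin LB agar control.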
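Also: IS621 recombinase and bridge RNA in Escherichia coli cells.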

Point of comparison: “AGTAGGCCTTGGGTTCTAACCTGTTGCGG (site AGTAGGCCTCC)”, “recombinant barcode read abundance (log10)” value 1.4. Against it:
- AGGTTCCCTTGGGTTCTAACCTGTTGCGG (site CTAGGAACTTA) — lower, 0.11
- AGGTTCCCTTGGGTTCTAACCTGTTGCTG (site AGGTTCCCTAA) — lower, 0.154
- AGGTTCCCTTGGGTTCTAACCTGTTGCTG (site AGGTTCCCTCA) — higher, 2.46
- AGGTTCCCTTGGGTTCTAACCTGTTGCTG (site AGGTTCCCTGA) — lower, 0.142
- AGGTTCCCTTGGGTTCTAACCTGTTGCTG (site AGGTTCCCTTA) — lower, 0.358
- AGTAAGACTTGGGTTCTAACCTGTTGCGT (site AGTAAGACTAA) — lower, 0.062
- AGTAAGACTTGGGTTCTAACCTGTTGCGT (site AGTAAGACTAC) — higher, 2.25
- AGTAAGACTTGGGTTCTAACCTGTTGCGT (site AGTAAGACTAG) — lower, 0.482
- AGTAAGACTTGGGTTCTAACCTGTTGCGT (site AGTAAGACTAT) — within 0.2 log units, 1.22
- AGTAAGACTTGGGTTCTAACCTGTTGCTT (site AGTAAGACTAA) — lower, 0.281
- AGTAAGACTTGGGTTCTAACCTGTTGCTT (site AGTAAGACTAC) — lower, 0.354
- AGTAAGACTTGGGTTCTAACCTGTTGCTT (site AGTAAGACTAG) — lower, 0.202
- AGTAAGACTTGGGTTCTAACCTGTTGCTT (site AGTAAGACTAT) — lower, 0.15
- AGTACTACTTGGGTTCTAACCTGTTGCCT (site AATACTACTAG) — lower, 0.0591
- AGTACTACTTGGGTTCTAACCTGTTGCCT (site ACTACTACTAG) — lower, 0.0106
- AGTACTACTTGGGTTCTAACCTGTTGCCT (site AGTACTACTAG) — lower, 0.25
- AGTACTACTTGGGTTCTAACCTGTTGCCT (site ATTACTACTAG) — lower, 0.162
- AGTAGGCCTTGGGTTCTAACCTGTTGCGG (site GGTAGGACTCC) — lower, 0.303
- AGTAGGGCTTGGGTTCTAACCTGTTGCAG (site AGTAGGGCTCT) — higher, 2.65
- AGTAGGGCTTGGGTTCTAACCTGTTGCAG (site CGTAGGGCTCG) — lower, 0.0704
- AGTATCGCTTGGGTTCTAACCTGTTGCGG (site AGTATCGCTCC) — lower, 1.11
- AGTATCGCTTGGGTTCTAACCTGTTGCGG (site AGTCTCGCTCC) — lower, 0.11
- AGTATCGCTTGGGTTCTAACCTGTTGCGG (site AGTGTCGCTCC) — lower, 0.0704
- AGTATCGCTTGGGTTCTAACCTGTTGCGG (site AGTTTCGCTCC) — lower, 0.246
- AGTATGTCTTGGGTTCTAACCTGTTGCCT (site AGTATGTCTAG) — lower, 1.13
- AGTATGTCTTGGGTTCTAACCTGTTGCCT (site CGTATGTCTAG) — lower, 0.184
- AGTATGTCTTGGGTTCTAACCTGTTGCCT (site GGTATGTCTAG) — lower, 0.0305
- AGTATGTCTTGGGTTCTAACCTGTTGCCT (site TGTATGTCTAG) — lower, 0.116
- AGTCACACTTGGGTTCTAACCTGTTGCAG (site AGTCACACTCT) — within 0.2 log units, 1.44
- AGTCACACTTGGGTTCTAACCTGTTGCAG (site TTGTGAGCTGC) — lower, 0.153
- AGTCACACTTGGGTTCTAACCTGTTGCTG (site AGTCACACTCA) — lower, 1.18
- AGTCACACTTGGGTTCTAACCTGTTGCTG (site AGTCACACTTA) — lower, 0
- AGTCCACCTTGGGTTCTAACCTGTTGCCT (site AGTCCACCTAG) — within 0.2 log units, 1.53
- AGTCCACCTTGGGTTCTAACCTGTTGCCT (site CGTCCACCTAG) — lower, 0.166
- AGTCCACCTTGGGTTCTAACCTGTTGCCT (site GGTCCACCTAG) — lower, 0.132
- AGTCCACCTTGGGTTCTAACCTGTTGCCT (site TGTCCACCTAG) — lower, 0.49
- AGTCCGTCTTGGGTTCTAACCTGTTGCAT (site AGTCCGTCTAT) — within 0.2 log units, 1.29
- AGTCCGTCTTGGGTTCTAACCTGTTGCAT (site CTAATAGCTTG) — lower, 0.0391
- AGTCGGACTTGGGTTCTAACCTGTTGCTT (site AGTCATACTAA) — lower, 0.446
- AGTCGGACTTGGGTTCTAACCTGTTGCTT (site AGTCGGACTAA) — lower, 0.517
- AGTCGTACTTGGGTTCTAACCTGTTGCCT (site AGACGTACTAG) — lower, 0.166
- AGTCGTACTTGGGTTCTAACCTGTTGCCT (site AGCCGTACTAG) — lower, 0.213
- AGTCGTACTTGGGTTCTAACCTGTTGCCT (site AGGCGTACTAG) — lower, 0.0589
- AGTCGTACTTGGGTTCTAACCTGTTGCCT (site AGTCGTACTAG) — lower, 0.536
- AGTCTAGCTTGGGTTCTAACCTGTTGCCA (site AGTCTAGCTAG) — lower, 0.176
- AGTCTAGCTTGGGTTCTAACCTGTTGCCA (site AGTCTAGCTCG) — lower, 0.217
- AGTCTAGCTTGGGTTCTAACCTGTTGCCA (site AGTCTAGCTGG) — lower, 0.548
- AGTCTAGCTTGGGTTCTAACCTGTTGCCA (site AGTCTAGCTTG) — lower, 0.493
- AGTCTAGCTTGGGTTCTAACCTGTTGCGG (site AGGATAGCTCC) — lower, 0.479
- AGTCTAGCTTGGGTTCTAACCTGTTGCGG (site AGTCTAGCTCC) — within 0.2 log units, 1.33
- AGTCTGCCTTGGGTTCTAACCTGTTGCCT (site AGTCTGCCTAG) — lower, 0.427
- AGTCTGCCTTGGGTTCTAACCTGTTGCCT (site CGTCTGCCTAG) — lower, 0.0547
- AGTCTGCCTTGGGTTCTAACCTGTTGCCT (site GGTCTGCCTAG) — lower, 0.0978
- AGTCTGCCTTGGGTTCTAACCTGTTGCCT (site TGTCTGCCTAG) — lower, 0.0318
- AGTGAACCTTGGGTTCTAACCTGTTGCCT (site AGCTAACCTAG) — lower, 0.013
- AGTGAACCTTGGGTTCTAACCTGTTGCCT (site AGTGAACCTAG) — higher, 1.84
- AGTGAATCTTGGGTTCTAACCTGTTGCCT (site AGAGAATCTAG) — lower, 0.13
- AGTGAATCTTGGGTTCTAACCTGTTGCCT (site AGCGAATCTAG) — lower, 0.249
- AGTGAATCTTGGGTTCTAACCTGTTGCCT (site AGGGAATCTAG) — lower, 0.286
- AGTGAATCTTGGGTTCTAACCTGTTGCCT (site AGTGAATCTAG) — lower, 0.541
- AGTGCGTCTTGGGTTCTAACCTGTTGCCT (site AGTGCGTCTAG) — within 0.2 log units, 1.52
- AGTGCGTCTTGGGTTCTAACCTGTTGCCT (site CGTGCGTCTAG) — lower, 0.043
- AGTGCGTCTTGGGTTCTAACCTGTTGCCT (site GGTGCGTCTAG) — lower, 0.241
- AGTGCGTCTTGGGTTCTAACCTGTTGCCT (site TGTGCGTCTAG) — lower, 0.0164
- AGTGCTCCTTGGGTTCTAACCTGTTGCGG (site AGAGCTCCTCC) — lower, 0.196
